Assay results as given in article PMC6789589, “A Convenient Synthetic Method to Improve Immunogenicity of Mycobacterium tuberculosis Related T-Cell Epitope Peptides” (Vaccines, 2019).
Starred links: 1 amine or outer side, 2 acyl side, 3 side chain; linkers in the order of their positions; H or OH if unused. Positions of bridges follow the written chain, without caps; N, C: chain ends. Residues, ends and D or L forms follow the SMILES beside them. Chains are numbered I, II in the order given. *: point of attachment. X1 = O=C1CC([*:2])C(=O)N1CCCCCC(=O)[*:1]; Palmitoyl = CCCCCCCCCCCCCCCC(=O)*

Legend:
MM6 cells = assay: Intracellular localization by confocal laser scanning microscopy; format: cell-based, human; conditions: Cf-labelled peptides, 60 min; P/A/I mix 5 µM, A(P)I 2.5 µM, pal-A(P)I 0.5 µM
Description: Cellular uptake and localization were visualized by confocal microscopy. MM6 cells were seeded (10^5 cells/well) one day prior to treatment on cover glass containing 24-well plates (Sarstedt, Nümbrecht, Germany). Lysosomes were stained by LysoTracker^TM Deep Red (Invitrogen, Carlsbad, CA, USA) for 30 min, followed by incubation with Cf-labeled peptides for 60 min. Subsequently, nuclei were stained by Hoechst 33342 solution (Thermo Scientific, Waltham, MA, USA). After each step, cells were washed three times with serum-free medium. Cells were fixed by 4% paraformaldehyde for 15 min and mounted to microscopy slides with Mowiol® 4–88. Imaging was performed on a Zeiss LSM 710 system with 40× oil immersion objective. Images were processed with ZEN lite software (Zeiss, Oberkochen, Germany).
Localization of the compounds was visualized by confocal laser scanning microscopy in MM6 cells (Figure 2c). Cells were incubated with Cf-labelled peptides for 60 min; moreover, nuclei and lysosomes were also stained. The peptide concentrations for P/A/I mix, A(P)I, and pal-A(P)I were 5, 2.5, and 0.5 µM, respectively. As different compound concentrations and laser intensities were also used to visualize the compounds showing low or high internalization, the presented images give information about the intracellular localization and are not to be considered in a quantitative manner.

antigen presenting cells = assay: Time course of cellular uptake by flow cytometry; format: cell-based; conditions: incubation 15 min to 16 h, FITC-positive cells and mean fluorescence intensity (Figure 3c)
Description: To further analyze the internalization of the compounds, the time course of the cellular uptake rate was measured by flow cytometry. […] The internalization rate of pal-A(P)I conjugate was very fast.
Figure 3 Detailed study on the cellular uptake by antigen presenting cells and the time course of internalization. Fluorescence intensity of compound treated cells was analyzed by flow cytometry (a) with or without trypsinization, and (b) in the presence or absence of trypan blue. No significant differences were observed after eliminating the fluorescent signal from adsorbed peptides or conjugates. (c) To study the time course of internalization, different incubation periods (15 min, 1 h, 3 h, 6 h, and 16 h) were applied, and the intracellular fluorescence intensity was measured. (d) The viability of compound-treated cells was compared to untreated control cells, and relative viabilities are presented. The viability of the control cells was always > 85% (results are represented as mean ± SEM, n = 3).

[1] = tested on: MonoMac6 human monocytes (MM6); assay: Cellular uptake (internalization) by flow cytometry in MonoMac6; conditions: Cf-labelled compounds, MM6, 2.5 µM, 2 h, flow cytometry histograms (Figure S1)
Description: Internalization of the compounds was measured in the MonoMac6 (MM6) human monocytic cell line [31] and on murine bone marrow-derived macrophages (BMDMs). MonoMac6 cells were maintained as an adherent culture in RPMI-1640 supplemented with 10% heat-inactivated fetal calf serum (FCS) L-glutamine (2 mM) and gentamicin (35 μM) at 37 °C in a humidified atmosphere containing 5% CO2. […] For the assay, cells were treated with peptides at 2.5 µM final concentration and were incubated for 2 hours. After centrifugation (1000 rpm, 5 min) and washing with serum-free RPMI medium, supernatant was removed and 100 μL 0.25% trypsin was added to the cells. After 5 min incubation, 0.8 mL 10% FCS/HPMI medium was added, then cells were washed and re-suspended in 0.3 mL HPMI medium. The intracellular fluorescence intensity of the cells was measured on a BD LSR II flow cytometer (BD Biosciences, San Jose, CA, USA) on channel FITC (emission at λ = 505 nm) and data were analyzed with FACSDiva 5.0 software (BD Biosciences, San Jose, CA, USA). External fluorescence quenching was performed by adding 10 µL of 0.04% trypan blue solution. […]
treated with the compounds, then cells were analyzed by flow cytometry. To quantify viable cells, […]
negative control, RPMI medium was used (b) and the FITC-negative population was determined on this

[2] = tested on: human erythrocyte suspension; assay: Hemolytic activity assay on human erythrocyte suspension; format: cell-based; conditions: 2% (v/v) human erythrocyte suspension, 2 h, 37 °C, 0.05–100 µM
Description: The hemolytic activity of the compounds was measured on human erythrocyte suspension. Cytotoxicity was assayed on murine BMDM. These two experiments are detailed in the Supplementary Information.
The hemolytic activity of the compounds was assayed as described previously. Briefly, peripheral blood from healthy volunteers was collected in vacuum tubes containing heparin (Li-heparin LH, VenoSafe) as anticoagulant. Tubes were centrifuged (1000 g, 5 min) and the pellet was washed three times with RPMI-1640 (culturing medium without phenol red). RPMI medium was added to the pellet to yield a final 2% (v/v) RBC suspension. […]
0.5%). […] After centrifugation (1000 g, 5 min), 100 µL of the supernatant was transferred to a flat-bottom microtiter plate and absorbance was measured at 414 nm using an ELISA plate reader (iEMS Reader, Labsystems). The percentage hemolysis was compared to a hemolytic control peptide (CM15, 200 μM) treated RBC and the concentration of peptide at which 50% hemolysis occurred (HC50 value) was determined. Compounds were measured in triplicates.
The cytotoxic effect of the compounds was measured on murine BMDMs. […] The precipitated purple crystals were dissolved in 100 μL DMSO, and after 10 minutes agitation, the absorbance was determined at λ = 540 nm and 620 nm using an ELISA plate reader (iEMS Reader, Labsystems). […]
1 Determined on 2% (v/v) human erythrocyte suspension. […]

[3] = Water solubility (observation); format: physicochemical

SMILES	intracellular localization (MM6 cells)	time course of internalization, in words (antigen presenting cells)	percentage of FITC-positive cells [1] [%]	Hemolytic activity HC50 ± sd [2] [µM]	water solubility [3]
CC[C@H](C)[C@H](NC(=O)CNC(=O)[C@H](Cc1ccccc1)NC(=O)[C@@H](N)Cc1ccccc1)C(=O)N[C@@H](CC(N)=O)C(=O)N[C@H](C(=O)N[C@H](C(=O)N1CCC[C@H]1C(=O)N[C@H](C(=O)N[C@@H](C)C(=O)N[C@@H](CSC1CC(=O)N(CCCCCC(=O)NCCCC[C@H](NC(=O)[C@@H](NC(=O)[C@H](CC(C)C)NC(=O)[C@H](CCCNC(=N)N)NC(=O)[C@@H](NC(=O)[C@H](CC(N)=O)NC(=O)[C@H](CC(N)=O)NC(=O)[C@H](C)NC(=O)[C@@H](NC(=O)[C@H](CC(C)C)NC(=O)[C@H](CCCCN)NC(C)=O)C(C)C)[C@@H](C)O)[C@@H](C)O)C(=O)N2CCC[C@H]2C(=O)N[C@@H](CCCCN)C(=O)NCC(=O)NCC(=O)N[C@@H](CC(C)C)C(=O)N[C@H](C(=O)N[C@@H](CC(=O)O)C(=O)N[C@H](C(=O)N[C@@H](C)C(=O)N2CCC[C@H]2C(=O)N[C@@H](Cc2c[nH]cn2)C(=O)N[C@@H](CCC(N)=O)C(=O)N[C@H](C(=O)N[C@@H](CO)C(=O)N[C@@H](CO)C(=O)N[C@H](C(N)=O)C(C)C)[C@@H](C)CC)[C@@H](C)CC)[C@@H](C)CC)C1=O)C(N)=O)[C@@H](C)CC)[C@@H](C)CC)[C@@H](C)O (some centres unmarked) [A(P)I, KLVANNTRL-TKmal(FFGINTIPIAC)PKG-GLIDIAPHQISSV] (I: Ac-KLVANNTRLTKPKGGLIDIAPHQISSV-NH2 / II: H-FFGINTIPIAC-NH2; linker I:11-II:11 via X1; N-terminus and C-terminus assumed)	colocalization with lysosomes that was even more pronounced	significantly slower than the internalization of pal-A(P)I	21.5	–	–
CCCCCCCCCCCCCCCC(=O)N[C@@H](CCCCN)C(=O)N[C@@H](CC(C)C)C(=O)N[C@H](C(=O)N[C@@H](C)C(=O)N[C@@H](CC(N)=O)C(=O)N[C@@H](CC(N)=O)C(=O)N[C@H](C(=O)N[C@@H](CCCNC(=N)N)C(=O)N[C@@H](CC(C)C)C(=O)N[C@H](C(=O)N[C@@H](CCCCNC(=O)CCCCCN1C(=O)CC(SC[C@H](NC(=O)[C@H](C)NC(=O)[C@@H](NC(=O)[C@@H]2CCCN2C(=O)[C@@H](NC(=O)[C@@H](NC(=O)[C@H](CC(N)=O)NC(=O)[C@@H](NC(=O)CNC(=O)[C@H](Cc2ccccc2)NC(=O)[C@@H](N)Cc2ccccc2)[C@@H](C)CC)[C@@H](C)O)[C@@H](C)CC)[C@@H](C)CC)C(N)=O)C1=O)C(=O)N1CCC[C@H]1C(=O)N[C@@H](CCCCN)C(=O)NCC(=O)NCC(=O)N[C@@H](CC(C)C)C(=O)N[C@H](C(=O)N[C@@H](CC(=O)O)C(=O)N[C@H](C(=O)N[C@@H](C)C(=O)N1CCC[C@H]1C(=O)N[C@@H](Cc1c[nH]cn1)C(=O)N[C@@H](CCC(N)=O)C(=O)N[C@H](C(=O)N[C@@H](CO)C(=O)N[C@@H](CO)C(=O)N[C@H](C(N)=O)C(C)C)[C@@H](C)CC)[C@@H](C)CC)[C@@H](C)CC)[C@@H](C)O)[C@@H](C)O)C(C)C (some centres unmarked) [pal-A(P)I, palmitoyl-KLVANNTRL-TKmal(FFGINTIPIAC)PKG-GLIDIAPHQISSV] (I: Palmitoyl-KLVANNTRLTKPKGGLIDIAPHQISSV-NH2 / II: H-FFGINTIPIAC-NH2; linker I:11-II:11 via X1)	–	–	–	> 100	very low water solubility
